# Assay: Solvent solubility evaluation of aromatic ring-containing compound in PGMEA
# Type: physicochemical
# Settings: 1 g compound and 1 mL PGMEA stirred for 24 hours at 25° C.
# Protocol: <Solvent Solubility Evaluation>
# 1 g of an aromatic ring-containing compound and 1 mL of propylene glycol monomethyl ether acetate (PGMEA) were stirred for 24 hours at 25° C. and then the aromatic ring-containing compound was mixed with PGMEA uniformly and evaluated by the following criteria.
# A: 50% by mass or more of an aromatic ring-containing compound were dissolved in PGMEA.
# B: 30% by mass or more and less than 50% by mass of an aromatic ring-containing compound were dissolved in PGMEA.
# C: 5% by mass or more and less than 30% by mass of an aromatic ring-containing compound were dissolved in PGMEA.
# D: The amount of an aromatic ring-containing compound dissolved in PGMEA was less than 5% by mass.
# The solvent solubility of an aromatic ring-containing compound was measured in the same manner as described above.
row,Structure (SMILES),Solvent solubility evaluation
1,"C=CC(=O)OCCOc1ccc(C2(c3ccc(OCCOC(=O)C=C)cc3)c3ccccc3-c3ccccc32)cc1 [Comparative Compound 1, reference compound]",C (5% by mass or more and less than 30% by mass of an aromatic ring-containing compound were dissolved in PGMEA)
2,C=CC(=O)OCCOc1ccc2cc(C3(c4ccc(OCCOC(=O)C=C)c(-c5nc6ccccc6s5)c4)c4ccccc4-c4cc5ccccc5cc43)ccc2c1 (stereo not drawn) [Compound E],A (50% by mass or more of an aromatic ring-containing compound were dissolved in PGMEA)
3,C=CC(=O)OCCOc1ccc2cc(-c3ccc4nc(C5(c6nc7ccc(-c8ccc9cc(OCCOC(=O)C=C)ccc9c8)cc7s6)c6ccccc6-c6cc7ccccc7cc65)sc4c3)ccc2c1 [Compound 5],A (50% by mass or more of an aromatic ring-containing compound were dissolved in PGMEA)
4,C=CC(=O)OCCOc1ccc(-c2nc3cc(C(c4ccccc4)(c4ccccc4)c4ccc5sc(-c6ccc(OCCOC(=O)C=C)cc6)nc5c4)ccc3s2)cc1 [Compound A],B (30% by mass or more and less than 50% by mass of an aromatic ring-containing compound were dissolved in PGMEA)
5,C=CC(=O)OCCOc1ccc(-c2nc3ccc(C4(c5ccc6nc(-c7ccc(OCCOC(=O)C=C)cc7)sc6c5)c5ccccc5-c5ccccc54)cc3s2)cc1 [Compound 7],A (50% by mass or more of an aromatic ring-containing compound were dissolved in PGMEA)
6,C=CC(=O)OCCOc1ccc(-c2nc3cc(C4(c5ccc6oc(-c7ccc(OCCOC(=O)C=C)cc7)nc6c5)c5ccccc5-c5cc6ccccc6cc54)ccc3o2)cc1 [Compound H],B (30% by mass or more and less than 50% by mass of an aromatic ring-containing compound were dissolved in PGMEA)
7,C=CC(=O)OCCOc1ccc2c(c1)-c1cc3ccccc3cc1C2(c1ccc(-c2nc3ccccc3s2)cc1)c1ccc2cc(OCCOC(=O)C=C)ccc2c1 (stereo not drawn) [Compound 1],A (50% by mass or more of an aromatic ring-containing compound were dissolved in PGMEA)
8,C=CC(=O)OCCOc1ccc2nc(-c3ccc(C4(c5ccc(-c6nc7ccc(OCCOC(=O)C=C)cc7s6)cc5)c5ccccc5-c5ccccc54)cc3)sc2c1 [Compound 3],A (50% by mass or more of an aromatic ring-containing compound were dissolved in PGMEA)
9,C=CC(=O)OCCOc1ccc2c(c1)C(c1ccc(-c3nc4ccccc4o3)cc1)(c1ccc3cc(OCCOC(=O)C=C)ccc3c1)c1cc3ccccc3cc1-2 (stereo not drawn) [Compound D],B (30% by mass or more and less than 50% by mass of an aromatic ring-containing compound were dissolved in PGMEA)
10,C=CC(=O)OCCOc1ccc2nc(-c3ccc(C4(c5ccc(-c6nc7ccc(OCCOC(=O)C=C)cc7s6)cc5)c5ccccc5-c5cc6ccccc6cc54)cc3)sc2c1 [Compound 6],A (50% by mass or more of an aromatic ring-containing compound were dissolved in PGMEA)
11,C=CC(=O)OCCOc1ccc(-c2nc3ccc(C4(c5ccc6nc(-c7ccc(OCCOC(=O)C=C)cc7)sc6c5)c5ccccc5-c5cc6ccccc6cc54)cc3s2)cc1 [Compound 9],A (50% by mass or more of an aromatic ring-containing compound were dissolved in PGMEA)
12,C=CC(=O)OCCOc1ccc2nc(C3(c4nc5ccc(OCCOC(=O)C=C)cc5s4)c4ccccc4-c4ccccc43)sc2c1 [Compound I],A (50% by mass or more of an aromatic ring-containing compound were dissolved in PGMEA)
13,C=CC(=O)OCCOc1ccc2c(c1)-c1cc3ccccc3cc1C2(c1ccc(-c2nc3ccccc3s2)cc1)c1ccc(OCCOC(=O)C=C)c2ccccc12 (stereo not drawn) [Compound 2],A (50% by mass or more of an aromatic ring-containing compound were dissolved in PGMEA)
14,C=CC(=O)OCCOc1ccc2cc(-c3nc4ccc(C5(c6ccc7nc(-c8ccc9cc(OCCOC(=O)C=C)ccc9c8)sc7c6)c6ccccc6-c6ccccc65)cc4s3)ccc2c1 [Compound 8],A (50% by mass or more of an aromatic ring-containing compound were dissolved in PGMEA)
15,C=CC(=O)OCCOc1ccc(-c2ccc3nc(C4(c5nc6ccc(-c7ccc(OCCOC(=O)C=C)cc7)cc6s5)c5ccccc5-c5cc6ccccc6cc54)sc3c2)cc1 [Compound 4],A (50% by mass or more of an aromatic ring-containing compound were dissolved in PGMEA)
16,C=CC(=O)OCCOc1ccc(-c2ccc(C3(c4ccc(OCCOC(=O)C=C)cc4)c4ccccc4-c4cc5sc(-c6ccccc6)nc5cc43)cc2)cc1 (stereo not drawn) [Compound C],B (30% by mass or more and less than 50% by mass of an aromatic ring-containing compound were dissolved in PGMEA)
17,C=CC(=O)OCCOc1ccc2c(c1)-c1cc(OCCOC(=O)C=C)ccc1C2(c1ccc2nc(-c3ccccc3)sc2c1)c1ccc2nc(-c3ccccc3)sc2c1 [Compound B],B (30% by mass or more and less than 50% by mass of an aromatic ring-containing compound were dissolved in PGMEA)
18,C=CC(=O)OCCOc1ccc2cc(-c3nc4ccc(C5(c6ccc7nc(-c8ccc9cc(OCCOC(=O)C=C)ccc9c8)sc7c6)c6ccccc6-c6cc7ccccc7cc65)cc4s3)ccc2c1 [Compound 10],A (50% by mass or more of an aromatic ring-containing compound were dissolved in PGMEA)
19,C=CC(=O)OCCOc1ccc(C2(c3ccc4sc(-c5ccccc5)nc4c3)c3ccccc3-c3cc(OCCOC(=O)C=C)ccc32)cc1 (stereo not drawn) [Compound F],B (30% by mass or more and less than 50% by mass of an aromatic ring-containing compound were dissolved in PGMEA)
20,C=CC(=O)OCCOc1ccc(C2(c3ccc(OCCOC(=O)C=C)cc3)c3ccccc3-c3cc4sc(-c5ccccc5)nc4cc32)cc1 [Compound G],B (30% by mass or more and less than 50% by mass of an aromatic ring-containing compound were dissolved in PGMEA)
21,C=CC(=O)OCCOc1ccc(C2(c3ccc4sc(-c5ccc6cc(OCCOC(=O)C=C)ccc6c5)nc4c3)c3ccccc3-c3cc4ccccc4cc32)cc1 (stereo not drawn) [Compound J],A (50% by mass or more of an aromatic ring-containing compound were dissolved in PGMEA)

# Reference: patent US9902794B2, “Curable composition, optical component and compound” (FUJIFILM Corporation, priority 2014, dated 2018)
